# Legend:
# [1] = target: T1, TYK2-JH2 (aa 575-869, in-house) protein (Homo sapiens, UniProt P29597); assay: TYK2-JH2 biochemical assay (HTRF probe displacement); assay type: binding; details: Biochemical assay; read-out: TYK2-JH2 IC50
# T1 construct: TYK2-JH2 (aa 575-869, in-house) protein; made in house
# Summary of the method: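 Recombinant TYK2-JH2 (0.2 nM) was pre-incubated 0.5 h at room temperature with compounds (10 doses, 5-fold dilution; 500× DMSO stocks from 500 uM) in 20 mM HEPES pH 7.5, 10 mM MgCl2, 0.005% BSA, 2 mM DTT, 0.015% Brij-35. Probe displacement was read by HTRF (ex337, em620/665 nm); IC50 from four-parameter logistic fit.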
# [2] = system: JAK2, TYK2/p-STAT4 (Tyr693) activated by IL-12 in NK-92 cell line; assay: IL-12-JAK2, TYK2/p-STAT4 (Tyr693) inhibition IC50 cellular assay; assay type: cell-based; details: for Selectivity fold (TYK2/JAK2): Cellular assay, pSTAT5/GM-CSF IC50 vs pSTAT4/IL-12 IC50; for IC50: NK92, Cellular assay, read-out: pSTAT4/IL-12 IC50
# Summary of the method: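 NK-92 cells were starved overnight without IL-2 and preincubated 1 h at 37° C with compound (8 doses, 10000–0.61 nM, 4-fold, 0.2% DMSO). They were then stimulated with IL-12 (40 ng/ml final) for 30 min. Lysate p-STAT4 (Tyr693) was read by AlphaLISA SureFire; IC50 from four-parameter logistic fit.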
# pSTAT5/GM-CSF = pSTAT5/GM-CSF cellular assay (JAK2 selectivity); assay type: cell-based; details: for Selectivity fold (TYK2/JAK2): pSTAT5/GM-CSF vs pSTAT4/IL-12
# T1 sequence (P29597 575-869): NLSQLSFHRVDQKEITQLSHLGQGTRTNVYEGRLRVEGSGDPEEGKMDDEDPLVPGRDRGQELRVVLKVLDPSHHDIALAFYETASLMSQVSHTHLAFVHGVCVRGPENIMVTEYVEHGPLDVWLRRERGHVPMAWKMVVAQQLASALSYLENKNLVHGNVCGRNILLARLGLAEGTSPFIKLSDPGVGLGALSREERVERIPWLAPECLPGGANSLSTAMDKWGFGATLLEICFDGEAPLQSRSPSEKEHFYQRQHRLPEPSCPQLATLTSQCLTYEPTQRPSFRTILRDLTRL
IC50 [1] [nM],IC50 [2] [nM],IC50 (pSTAT5/GM-CSF) [nM],SMILES,Selectivity fold (TYK2/JAK2) [2] [fold],Selectivity fold (TYK2/JAK2) (pSTAT5/GM-CSF) [fold]
0.029,2.72,> 10000,"COCc1ccc(-c2cnc(NC(C)=O)cc2Nc2cc(OCCO)cc(S(C)(=O)=O)n2)nc1 [Example E6, N-(4′-((4-(2-hydroxyethoxy)-6-(methylsulfonyl)pyridin-2-yl)amino)-5-(methoxymethyl)-[2,3′-bipyridin]-6′-yl)acetamide]",>3676,–
0.02,0.447,> 10000,"COCc1ccc(-c2cnc(NC(C)=O)cc2Nc2cc(OC)cc(S(C)(=O)=O)n2)nc1 [Example E7, N-(4′-((4-methoxy-6-(methylsulfonyl)pyridin-2-yl)amino)-5-(methoxymethyl)-[2,3′-bipyridin]-6′-yl)acetamide]",>22371,–
0.022,0.504,> 10000,"COCc1ccc(-c2cnc(NC(C)=O)cc2Nc2cc(COC)cc(S(C)(=O)=O)n2)nc1 [Example E9, N-(5-(methoxymethyl)-4′-((4-(methoxymethyl)-6-(methylsulfonyl)pyridin-2-yl)amino)-[2,3′-bipyridin]-6′-yl)acetamide]",>19960,–
0.046,1.23,> 10000,"CC(=O)Nc1cc(Nc2cc(C)cc(S(C)(=O)=O)n2)c(-c2ccc(C(F)(F)F)cn2)cn1 [Example F1, N-(4′-((4-methyl-6-(methylsulfonyl)pyridin-2-yl)amino)-5-(trifluoromethyl)-[2,3′-bipyridin]-6′-yl)acetamide]",>8130,–
0.051,22.1,> 10000,"CC(=O)Nc1cc(Nc2cccc(S(C)(=O)=O)c2)c(-c2ccc(C(F)(F)F)cn2)cn1 [Example F2, N-(4′-((3-(methylsulfonyl)phenyl)amino)-5-(trifluoromethyl)-[2,3′-bipyridin]-6′-yl)acetamide]",>451,–
0.06,5.45,> 10000,"CC(=O)Nc1cc(Nc2cc(OC(C)C)cc(S(C)(=O)=O)n2)c(-c2ccc(C(F)(F)F)cn2)cn1 [Example F9, N-(4′-((4-isopropoxy-6-(methylsulfonyl)pyridin-2-yl)amino)-5-(trifluoromethyl)-[2,3′-bipyridin]-6′-yl)acetamide]",> 1834,–
0.037,0.705,> 10000,"COCCOc1cc(Nc2cc(NC(C)=O)ncc2-c2ccc(C(F)(F)F)cn2)nc(S(C)(=O)=O)c1 [Example F11, N-(4′-((4-(2-methoxyethoxy)-6-(methylsulfonyl)pyridin-2-yl)amino)-5-(trifluoromethyl)-[2,3′-bipyridin]-6′-yl)acetamidecarboxamide]",>14184,–
0.034,1.35,> 10000,"CC(=O)Nc1cc(Nc2cc(OCCO)cc(S(C)(=O)=O)n2)c(-c2ccc(C(F)(F)F)cn2)cn1 [Example F12, N-(4′-((4-(2-hydroxyethoxy)-6-(methylsulfonyl)pyridin-2-yl)amino)-5-(trifluoromethyl)-[2,3′-bipyridin]-6′-yl)acetamide]",>7407,–
0.054,1.25,> 10000,"CC(=O)Nc1cc(Nc2cc(C)cc(S(C)(=O)=O)n2)c(-c2ccc(F)cn2)cn1 [Example F17, N-(5-fluoro-4′-((4-methyl-6-(methylsulfonyl)pyridin-2-yl)amino)-[2,3′-bipyridin]-6′-yl)acetamide]",>8000,–
0.036,3.06,> 10000,"CCOc1cc(Nc2cc(NC(C)=O)ncc2-c2ccc(F)cn2)nc(S(C)(=O)=O)c1 [Example F19, N-(4′-((4-ethoxy-6-(methylsulfonyl)pyridin-2-yl)amino)-5-fluoro-[2,3′-bipyridin]-6′-yl)acetamide]",>3267,–
0.031,1.45,> 10000,"COc1cc(Nc2cc(NC(C)=O)ncc2-c2ccc(C(F)(F)F)cn2)nc(S(C)(=O)=O)c1 [Example F20, N-(4′-((4-methoxy-6-(methylsulfonyl)pyridin-2-yl)amino)-5-(trifluoromethyl)-[2,3′-bipyridin]-6′-yl)acetamide]",>6896,–
0.026,3.54,> 10000,"CC(=O)Nc1cc(Nc2cc(OC[C@H](C)O)cc(S(C)(=O)=O)n2)c(-c2ccc(C(F)(F)F)cn2)cn1 [Example F21, (S)-N-(4′-((4-(2-hydroxypropoxy)-6-(methylsulfonyl)pyridin-2-yl)amino)-5-(trifluoromethyl)-[2,3′-bipyridin]-6′-yl)acetamide]",>2814,–
0.02,1.07,> 10000,"COc1cc(S(C)(=O)=O)nc(Nc2cc(NC(C)=O)ncc2-c2ccc(F)cn2)c1OC [Example F23, N-(4′-((3,4-dimethoxy-6-(methylsulfonyl)pyridin-2-yl)amino)-5-fluoro-[2,3′-bipyridin]-6′-yl)acetamide]",>9345,–
0.033,0.82,> 10000,"[2H]C([2H])([2H])Oc1cc(Nc2cc(NC(C)=O)ncc2-c2ccc(F)cn2)nc(S(C)(=O)=O)c1 [Example F24, N-(5-fluoro-4′-((4-(methoxy-d3)-6-(methylsulfonyl)pyridine-2-yl)amino)-[2,3′-bipyridin]-6′-yl)acetamide]",>12195,–
0.029,0.446,> 10000,"CC(=O)Nc1cc(Nc2cc(C3CC3)cc(S(C)(=O)=O)n2)c(-c2ccc(F)cn2)cn1 [Example F25, N-(4′-((4-cyclopropyl-6-(methylsulfonyl)pyridin-2-yl)amino)-5-fluoro-[2,3′-bipyridin]-6′-yl)acetamide]",>22421,–
0.067,14.2,> 10000,"CC(=O)Nc1cc(Nc2cccc(S(C)(=O)=O)n2)c(-c2ccc(N3CCOCC3=O)cn2)cn1 [Example G2, N-(4′-((6-(methylsulfonyl)pyridin-2-yl)amino)-5-(3-oxomorpholino)-[2,3′-bipyridin]-6′-yl)acetamide]",–,>704
0.05,224,> 10000,"CC(=O)Nc1cc(Nc2cc(OCCO)cc(S(C)(=O)=O)n2)c(-c2ccc(N3CCOCC3=O)cn2)cn1 [Example G3, N-(4′-((4-(2-hydroxyethoxy)-6-(methylsulfonyl)pyridin-2-yl)amino)-5-(3-oxomorpholino)-[2,3′-bipyridin]-6′-yl)acetamide]",–,>44

SMILES,IC50 [1] [nM],IC50 [2] [nM],IC50 (pSTAT5/GM-CSF) [nM],Selectivity fold (TYK2/JAK2) [2] [fold],Selectivity fold (TYK2/JAK2) (pSTAT5/GM-CSF) [fold]
"COCc1ccc(-c2cnc(NC(C)=O)cc2Nc2cc(O[C@H]3C[C@H](O)C3)cc(S(C)(=O)=O)n2)nc1 [Example E8, N-(4′-((4-((1r,3r)-3-hydroxycyclobutoxy)-6-(methylsulfonyl)pyridin-2-yl)amino)-5-(methoxymethyl)-[2,3′-bipyridin]-6′-yl)acetamide]",0.034,2.86,> 10000,>3496,–

# Source: patent publication US20240043435A1, “TYK-2 INHIBITOR” (BEIGENE, LTD., priority 2020, published 2024)
